Measurements taken from patent US9567339B2, “Primary carboxamides as BTK inhibitors” (AbbVie Inc., priority 2013, dated 2017).

The compounds below were run against BTK, recombinant human catalytic domain (aa 393-659) (Homo sapiens (Human), UniProt Q06187) (assay: In vitro BTK kinase activity measured by time-resolved fluorescence resonance energy transfer (trFRET)). Details: trFRET, 0.001 mM ATP, biotin-TYR1 peptide substrate; read-out: Btk IC50.
Format: biochemical

Sequence of BTK, recombinant human catalytic domain (aa 393-659) (Q06187 393-659): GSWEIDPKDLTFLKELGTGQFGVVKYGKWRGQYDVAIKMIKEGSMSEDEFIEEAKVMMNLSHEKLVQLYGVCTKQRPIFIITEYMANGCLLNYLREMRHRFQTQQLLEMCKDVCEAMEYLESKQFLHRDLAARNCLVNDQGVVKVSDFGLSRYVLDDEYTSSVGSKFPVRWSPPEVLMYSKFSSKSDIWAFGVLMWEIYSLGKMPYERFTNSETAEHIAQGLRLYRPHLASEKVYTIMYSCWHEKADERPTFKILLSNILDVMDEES

Compound | IC50
C=CC(=O)N1CC([C@@H](C)c2ccc(C(N)=O)c3[nH]ccc23)C1 [28 (R), (R)-4-(1-(1-acryloylazetidin-3-yl)ethyl)-1H-indole-7-carboxamide] | < 100 nM
C=CC(=O)N1CC([C@H](C)c2ccc(C(N)=O)c3[nH]ccc23)C1 [28 (S), (S)-4-(1-(1-Acryloylazetidin-3-yl)ethyl)-1H-indole-7-carboxamide] | 100 to 1000 nM
C=CC(=O)N1CCC[C@H](c2ccc(C(N)=O)c3[nH]ccc23)C1 [30 (R), (R)-4-(1-Acryloylpiperidin-3-yl)-1H-indole-7-carboxamide] | 100 to 1000 nM
C=CC(=O)N1CCC[C@@H](c2ccc(C(N)=O)c3[nH]ccc23)C1 [30 (S), (S)-4-(1-acryloylpiperidin-3-yl)-1H-indole-7-carboxamide] | < 100 nM
C=CC(=O)Nc1cccc(-c2ccc(C(N)=O)c3[nH]c(-c4c(C)noc4C)cc23)c1C [A.1.1] | 100 to 1000 nM
C=CC(=O)Nc1cccc(-c2ccc(C(N)=O)c3[nH]c(-c4ccnn4C4CCCCO4)cc23)c1C (centres unmarked) [A.1.2] | < 100 nM
C=CC(=O)Nc1cccc(-c2ccc(C(N)=O)c3[nH]c(-c4c(C)n[nH]c4C)cc23)c1C [A.1.3] | 100 to 1000 nM
C=CC(=O)Nc1cccc(-c2ccc(C(N)=O)c3[nH]c(-c4cnn(C(C)C)c4)cc23)c1C [A.1.4] | < 100 nM
C=CC(=O)Nc1cccc(-c2ccc(C(N)=O)c3[nH]c(-c4cn(C)nc4C)cc23)c1C [A.1.5] | < 100 nM
C=CC(=O)Nc1cccc(-c2ccc(C(N)=O)c3[nH]c(-c4cnn(CC)c4)cc23)c1C [A.1.6] | < 100 nM
C=CC(=O)Nc1cccc(-c2ccc(C(N)=O)c3[nH]c(-c4cnn(CC(C)C)c4)cc23)c1C [A.1.7] | < 100 nM
C=CC(=O)Nc1cccc(-c2ccc(C(N)=O)c3[nH]c(-c4cnn(CCN5CCOCC5)c4)cc23)c1C [A.1.8] | < 100 nM
C=CC(=O)Nc1cccc(-c2ccc(C(N)=O)c3[nH]c(-c4cncnc4)cc23)c1C [A.1.10] | < 100 nM
C=CC(=O)Nc1cccc(-c2ccc(C(N)=O)c3[nH]c(-c4ccnn4C)cc23)c1C [A.1.11] | < 100 nM
C=CC(=O)Nc1cccc(-c2ccc(C(N)=O)c3[nH]c(-c4ccncc4)cc23)c1C [A.1.12] | < 100 nM
C=CC(=O)Nc1cccc(-c2ccc(C(N)=O)c3[nH]c(-c4ccnc(OC)c4)cc23)c1C [A.1.13] | < 100 nM
C=CC(=O)Nc1cccc(-c2ccc(C(N)=O)c3[nH]c(-c4cccc(C#N)c4)cc23)c1C [A.1.14] | < 100 nM
C=CC(=O)Nc1cccc(-c2ccc(C(N)=O)c3[nH]c(-c4cccc(NC(C)=O)c4)cc23)c1C [A.1.15] | < 100 nM
C=CC(=O)Nc1cccc(-c2ccc(C(N)=O)c3[nH]c(-c4ccc(F)nc4)cc23)c1C [A.1.16] | < 100 nM
C=CC(=O)Nc1cccc(-c2ccc(C(N)=O)c3[nH]c(-c4cccnc4F)cc23)c1C [A.1.17] | < 100 nM
C=CC(=O)Nc1cccc(-c2ccc(C(N)=O)c3[nH]c(-c4cccnc4OC)cc23)c1C [A.1.18] | < 100 nM
C=CC(=O)Nc1cccc(-c2ccc(C(N)=O)c3[nH]c(-c4cccc(C(=O)OC)c4)cc23)c1C [A.1.19] | < 100 nM
C=CC(=O)Nc1cccc(-c2ccc(C(N)=O)c3[nH]c(-c4ccc(C(=O)OC)cc4)cc23)c1C [A.1.20] | < 100 nM
C=CC(=O)Nc1cccc(-c2ccc(C(N)=O)c3[nH]c(-c4ccc5c(c4)CCO5)cc23)c1C [A.1.21] | < 100 nM
C=CC(=O)Nc1cccc(-c2ccc(C(N)=O)c3[nH]c(-c4cccc(OC)c4)cc23)c1C [A.1.22] | < 100 nM
C=CC(=O)Nc1cccc(-c2ccc(C(N)=O)c3[nH]c(-c4ccc(OC)cc4)cc23)c1C [A.1.23] | < 100 nM
C=CC(=O)Nc1cccc(-c2ccc(C(N)=O)c3[nH]c(-c4ccc(C)nc4)cc23)c1C [A.1.24] | < 100 nM
C=CC(=O)Nc1cccc(-c2ccc(C(N)=O)c3[nH]c(-c4cccc(C(N)=O)c4)cc23)c1C [A.1.25] | < 100 nM
C=CC(=O)Nc1cccc(-c2ccc(C(N)=O)c3[nH]c(-c4cccc(F)c4)cc23)c1C [A.1.26] | < 100 nM

Results, then the compound that gave them:

IC50 | Compound
< 100 nM | C=CC(=O)N[C@@H]1CCC[C@H](c2ccc(C(N)=O)c3[nH]ccc23)C1 (relative stereo) [Example 8, 4-(cis-3-Acrylamidocyclohexyl)-1H-indole-7-carboxamide]
100 to 1000 nM | C=CC(=O)N[C@H]1CCC[C@H](c2ccc(C(N)=O)c3[nH]ccc23)C1 (relative stereo) [Example 9, 4-(trans-3-Acrylamidocyclohexyl)-1H-indole-7-carboxamide]
< 100 nM | C=CC(=O)N[C@@H]1CC[C@H](c2ccc(C(N)=O)c3[nH]ccc23)C1 (relative stereo) [Example 10, 4-(cis-3-Acrylamidocyclopentyl)-1H-indole-7-carboxamide]
< 100 nM | C=CC(=O)N[C@H]1CC[C@H](c2ccc(C(N)=O)c3[nH]ccc23)C1 (relative stereo) [Example 11, 4-(trans-3-Acrylamidocyclopentyl)-1H-indole-7-carboxamide]
< 100 nM | CS(=O)(=O)N1CC=C(c2cc3c(N4CC[C@@H](O)[C@H](NC(=O)c5nccs5)C4)ccc(C(N)=O)c3[nH]2)CC1 (relative stereo) [O.1, N-(trans-1-(7-carbamoyl-2-(1-(methylsulfonyl)-1,2,3,6-tetrahydropyridin-4-yl)-1H-indol-4-yl)-4-hydroxypiperidin-3-yl)thiazole-2-carboxamide]
< 100 nM | C=CC(=O)Nc1cccc(-c2ccc(C(N)=O)c3[nH]c(-c4cccc(N(C)C)c4)cc23)c1C [A.1.27]
100 to 1000 nM | C=CC(=O)Nc1cccc(-c2ccc(C(N)=O)c3[nH]c(-c4cc(S(=O)(=O)N5CCCC5)ccc4C)cc23)c1C [A.1.28]
< 100 nM | C=CC(=O)Nc1cccc(-c2ccc(C(N)=O)c3[nH]c(-c4ccccc4F)cc23)c1C [A.1.29]
< 100 nM | C=CC(=O)Nc1cccc(-c2ccc(C(N)=O)c3[nH]c(-c4ccc(N5CCOCC5)nc4)cc23)c1C [A.1.30]
< 100 nM | C=CC(=O)Nc1cccc(-c2ccc(C(N)=O)c3[nH]c(-c4cccc(C(=O)N5CCN(C)CC5)c4)cc23)c1C [A.1.31]
< 100 nM | C=CC(=O)Nc1cccc(-c2ccc(C(N)=O)c3[nH]c(-c4ccc(F)cc4)cc23)c1C [A.1.32]
< 100 nM | C=CC(=O)Nc1cccc(-c2ccc(C(N)=O)c3[nH]c(-c4ccccc4)cc23)c1C [A.1.33]
< 100 nM | C=CC(=O)Nc1cccc(-c2ccc(C(N)=O)c3[nH]c(-c4ccc(C(=O)N(C)C)cc4)cc23)c1C [A.1.35]
< 100 nM | C=CC(=O)Nc1cccc(-c2ccc(C(N)=O)c3[nH]c(-c4cccnc4)cc23)c1C [A.1.36]
< 100 nM | C=CC(=O)Nc1cccc(-c2ccc(C(N)=O)c3[nH]c(-c4ccc(C(=O)N5CCCC5)cc4)cc23)c1C [A.1.38]
< 100 nM | C=CC(=O)Nc1cccc(-c2ccc(C(N)=O)c3[nH]c(-c4ccc(C(=O)N5CCN(C)CC5)cc4)cc23)c1C [A.1.39]
< 100 nM | C=CC(=O)Nc1cccc(-c2ccc(C(N)=O)c3[nH]c(-c4ccc(S(C)(=O)=O)cc4)cc23)c1C [A.1.40]
< 100 nM | C=CC(=O)Nc1cccc(-c2ccc(C(N)=O)c3[nH]c(-c4ccc(OC)nc4)cc23)c1C [A.1.41]

IC50 | Compound
< 100 nM | C=CC(=O)Nc1cccc(-c2ccc(C(N)=O)c3[nH]c(-c4ccc(C#N)cc4)cc23)c1C [A.1.42]
< 100 nM | C=CC(=O)Nc1cccc(-c2ccc(C(N)=O)c3[nH]c(-c4ccccc4OC)cc23)c1C [A.1.43]
< 100 nM | C=CC(=O)Nc1cccc(-c2ccc(C(N)=O)c3[nH]c(-c4ccc(CN5CCOCC5)cc4)cc23)c1C [A.1.44]
< 100 nM | C=CC(=O)Nc1cccc(-c2ccc(C(N)=O)c3[nH]c(-c4ccc(C(N)=O)cc4)cc23)c1C [A.1.45]
< 100 nM | Cc1c(NC(=O)c2nccs2)cccc1-c1ccc(C(N)=O)c2[nH]c(-c3ccc(=O)n(C)c3)cc12 [A.2.1]
< 100 nM | Cc1c(NC(=O)c2nccs2)cccc1-c1ccc(C(N)=O)c2[nH]c(-c3cnn(C)c3)cc12 [A.2.2]
< 100 nM | CC(=O)N1CC=C(c2cc3c(-c4cccc(-n5cnc6ccccc6c5=O)c4C)ccc(C(N)=O)c3[nH]2)CC1 [A.3.1]
< 100 nM | CC(=O)N1CC=C(c2cc3c(-c4cccc(-n5cnc6ccc(F)cc6c5=O)c4C)ccc(C(N)=O)c3[nH]2)CC1 [A.3.2]
< 100 nM | CC(=O)N1CC=C(c2cc3c(-c4cccc(NC(=O)c5ccc(C(C)(C)C)cc5)c4C)ccc(C(N)=O)c3[nH]2)CC1 [A.3.3]
< 100 nM | CC(=O)N1CC=C(c2cc3c(-c4cccc(NC(=O)c5nccs5)c4C)ccc(C(N)=O)c3[nH]2)CC1 [A.3.4]
< 100 nM | CC(=O)N1CC=C(c2cc3c(-c4cccc(NC(=O)c5cc6c(s5)CCCC6)c4C)ccc(C(N)=O)c3[nH]2)CC1 [A.3.5]
< 100 nM | CC(=O)N1CC=C(c2cc3c(-c4cccc(NC(=O)c5ccc(C6CC6)cc5)c4C)ccc(C(N)=O)c3[nH]2)CC1 [A.3.6]
< 100 nM | CC(=O)N1CC=C(c2cc3c(-c4cccc(NC(=O)c5ccc(C(F)F)cc5)c4C)ccc(C(N)=O)c3[nH]2)CC1 [A.3.7, 2-(1-acetyl-1,2,3,6-tetrahydropyridin-4-yl)-4-(3-(4-(difluoromethyl)benzamido)-2-methylphenyl)-1H-indole-7-carboxamide]
< 100 nM | CC(=O)N1CC=C(c2cc3c(-c4cccc(NC(=O)c5ccc(C(C)(C)C#N)cc5)c4C)ccc(C(N)=O)c3[nH]2)CC1 [A.3.8]
< 100 nM | C=CC(=O)NCc1cccc(-c2ccc(C(N)=O)c3[nH]c(C4=CCN(S(C)(=O)=O)CC4)cc23)c1 [A.4.1]
< 100 nM | CS(=O)(=O)N1CC=C(c2cc3c(-c4ccccc4N)ccc(C(N)=O)c3[nH]2)CC1 [A.4.2, 4-(2-aminophenyl)-2-(1-(methylsulfonyl)-1,2,3,6-tetrahydropyridin-4-yl)-1H-indole-7-carboxamide]
< 100 nM | C=CC(=O)Nc1ccccc1-c1ccc(C(N)=O)c2[nH]c(C3=CCN(S(C)(=O)=O)CC3)cc12 [A.4.3]
< 100 nM | CS(=O)(=O)N1CC=C(c2cc3c(-c4cccc(OCc5nccs5)c4)ccc(C(N)=O)c3[nH]2)CC1 [A.4.4]
